{"source": "patent US10207030B2", "about": "“Implantable devices for bone or joint defects” (University of Utah Research Foundation, priority 2013, dated 2019)", "system": "S. aureus", "assay": "MIC of tobramycin (previously determined)", "assay_type": "cell-based", "conditions": "Staphylococcus aureus", "data": [{"smiles": "NC[C@H]1O[C@H](O[C@H]2[C@H](O)[C@@H](O[C@H]3O[C@H](CO)[C@@H](O)[C@H](N)[C@H]3O)[C@H](N)C[C@@H]2N)[C@H](N)C[C@@H]1O", "note": "[tobramycin]", "values": [{"measurement": "MIC", "result": 4, "unit": "µg/mL"}]}]}
